Numbering of substitutions follows the chain as printed.
How the values were obtained:
[1] = target: T1, Aldo-keto reductase family 1 member C3 (Homo sapiens, UniProt P42330); assay: Inhibition of human AKR1C3 expressed in Escherichia coli incubated for 30 mins in presence of NADPH regeneration system by UHPLC analysis; settings: for Ki: read-out: Ki
T1 sequence (P42330 whole entry): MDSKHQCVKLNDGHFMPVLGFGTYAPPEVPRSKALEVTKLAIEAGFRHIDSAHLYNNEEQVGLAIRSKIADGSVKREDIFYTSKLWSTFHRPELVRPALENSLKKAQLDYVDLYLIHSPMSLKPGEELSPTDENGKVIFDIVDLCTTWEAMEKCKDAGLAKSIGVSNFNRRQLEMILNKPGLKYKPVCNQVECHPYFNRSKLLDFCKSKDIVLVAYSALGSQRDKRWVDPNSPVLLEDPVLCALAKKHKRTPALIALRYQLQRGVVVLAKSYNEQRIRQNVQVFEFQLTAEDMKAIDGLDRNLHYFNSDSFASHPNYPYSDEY

[2] = target: T2, Aldo-keto reductase family 1 member C4 (Homo sapiens, UniProt P17516); assay: Inhibition of human AKR1C4 using S-tetralol as substrate in presence of NADP by fluorescence method
T2 sequence (P17516 whole entry): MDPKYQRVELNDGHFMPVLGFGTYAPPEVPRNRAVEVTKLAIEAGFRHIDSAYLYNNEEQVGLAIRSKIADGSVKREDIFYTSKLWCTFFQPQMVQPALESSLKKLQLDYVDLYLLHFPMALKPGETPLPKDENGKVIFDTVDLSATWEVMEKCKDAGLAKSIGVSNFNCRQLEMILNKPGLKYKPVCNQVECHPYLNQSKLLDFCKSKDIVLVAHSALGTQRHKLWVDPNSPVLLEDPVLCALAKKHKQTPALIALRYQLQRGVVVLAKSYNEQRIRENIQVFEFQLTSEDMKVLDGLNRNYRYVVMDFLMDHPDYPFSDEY

[3] = target: T3, Aldo-keto reductase family 1 member C2 (Homo sapiens, UniProt P52895); assay: Inhibition of human AKR1C2 using S-tetralol as substrate in presence of NADP by fluorescence method
T3 sequence (P52895 whole entry): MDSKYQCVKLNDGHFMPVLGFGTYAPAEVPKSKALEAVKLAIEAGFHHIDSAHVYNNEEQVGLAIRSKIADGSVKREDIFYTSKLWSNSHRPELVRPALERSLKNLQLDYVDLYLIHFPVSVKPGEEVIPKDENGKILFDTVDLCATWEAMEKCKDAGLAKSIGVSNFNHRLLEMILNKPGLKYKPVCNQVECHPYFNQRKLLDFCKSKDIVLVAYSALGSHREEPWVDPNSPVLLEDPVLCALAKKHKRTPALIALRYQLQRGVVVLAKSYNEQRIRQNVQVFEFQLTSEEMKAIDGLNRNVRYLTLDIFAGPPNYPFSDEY

[4] = target: T1, Aldo-keto reductase family 1 member C3; assay: Inhibition of human AKR1C3 using S-tetralol as substrate in presence of NADP by fluorescence method
[5] = target: T4, Aldo-keto reductase family 1 member C1 (Homo sapiens, UniProt Q04828); assay: Inhibition of human AKR1C1 using S-tetralol as substrate in presence of NADP by fluorescence method
T4 sequence (Q04828 whole entry): T3 sequence (P52895 whole entry) with V38T, H47R, V54L, S87C, M151V, H170R, L172Q

[6] = target: T1, Aldo-keto reductase family 1 member C3; assay: Inhibition of human AKR1C3 expressed in Escherichia coli BL21(DE3) pLysS cells using 9,10-phenanthrenequinone as substrate
[7] = target: T1, Aldo-keto reductase family 1 member C3; assay: Inhibition of human AKR1C3 expressed in Escherichia coli BL21(DE3) pLysS cells using S-tetralol as substrate
Androgen receptor [8] = target: T5, Androgen receptor (Homo sapiens, UniProt P10275); assay: Displacement of [3H]-R1881 from androgen receptor (unknown origin) expressed in human HeLa cells harboring AR3A-PSA-(ARE)4-Luc13 incubated for 2 hrs by scintillation counting; assay type: cell-based
T5 sequence (P10275 whole entry): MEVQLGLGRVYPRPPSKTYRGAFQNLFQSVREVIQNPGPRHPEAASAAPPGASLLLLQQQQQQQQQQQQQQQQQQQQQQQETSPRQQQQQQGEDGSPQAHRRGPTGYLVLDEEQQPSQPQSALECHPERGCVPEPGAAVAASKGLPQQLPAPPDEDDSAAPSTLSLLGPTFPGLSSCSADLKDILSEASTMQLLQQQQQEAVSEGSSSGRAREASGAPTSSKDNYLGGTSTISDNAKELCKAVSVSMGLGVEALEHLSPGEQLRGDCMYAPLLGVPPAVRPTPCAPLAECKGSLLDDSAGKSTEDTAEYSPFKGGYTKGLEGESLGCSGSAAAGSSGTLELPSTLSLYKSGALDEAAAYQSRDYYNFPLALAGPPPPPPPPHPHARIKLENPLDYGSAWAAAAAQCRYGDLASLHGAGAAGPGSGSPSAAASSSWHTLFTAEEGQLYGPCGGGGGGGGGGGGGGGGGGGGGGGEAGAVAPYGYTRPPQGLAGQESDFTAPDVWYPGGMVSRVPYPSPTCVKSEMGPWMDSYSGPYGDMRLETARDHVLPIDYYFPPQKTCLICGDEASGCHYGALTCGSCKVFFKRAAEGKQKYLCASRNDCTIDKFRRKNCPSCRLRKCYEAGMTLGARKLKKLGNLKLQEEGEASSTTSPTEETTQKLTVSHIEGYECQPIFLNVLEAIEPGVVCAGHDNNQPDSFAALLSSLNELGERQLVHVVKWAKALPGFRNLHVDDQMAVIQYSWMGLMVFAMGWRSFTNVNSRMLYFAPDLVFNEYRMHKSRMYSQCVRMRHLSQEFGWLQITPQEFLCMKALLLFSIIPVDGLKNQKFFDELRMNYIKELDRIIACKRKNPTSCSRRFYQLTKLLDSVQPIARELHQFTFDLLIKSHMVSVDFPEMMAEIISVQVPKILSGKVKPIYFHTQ

Androgen receptor [9] = target: T5, Androgen receptor; assay: Antagonist activity at androgen receptor (unknown origin) expressed in human HeLa cells harboring AR3A-PSA-(ARE)4-Luc13 in presence of DHT by BrightGlo luciferase assay; assay type: cell-based
[10] = target: T6, Aldo-keto reductase family 1 member A1 (Homo sapiens, UniProt P14550); assay: Inhibition of N-terminal His-tagged human AKR1A1 expressed in Escherichia coli BL21 ([…] Plus) competent cells using D,L-glyceraldehyde as substrate in presence of NADPH by fluorescence method
T6 sequence (P14550 whole entry): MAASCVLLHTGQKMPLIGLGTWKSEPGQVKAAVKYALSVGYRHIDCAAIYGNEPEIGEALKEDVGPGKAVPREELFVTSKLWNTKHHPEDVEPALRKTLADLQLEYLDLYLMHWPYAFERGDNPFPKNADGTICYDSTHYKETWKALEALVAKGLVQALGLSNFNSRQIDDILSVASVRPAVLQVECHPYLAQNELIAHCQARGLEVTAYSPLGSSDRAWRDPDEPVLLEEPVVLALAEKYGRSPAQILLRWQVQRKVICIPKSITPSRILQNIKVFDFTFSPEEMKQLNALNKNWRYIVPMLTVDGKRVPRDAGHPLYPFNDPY

[11] = target: Aldo-keto reductase family 1 member B10 (Homo sapiens, UniProt O60218); assay: Inhibition of N-terminal His-tagged human AKR1B10 expressed in Escherichia coli BL21 ([…] Plus) competent cells using […] as substrate in presence of NADPH by fluorescence method
Sequence of Aldo-keto reductase family 1 member B10 (O60218 whole entry): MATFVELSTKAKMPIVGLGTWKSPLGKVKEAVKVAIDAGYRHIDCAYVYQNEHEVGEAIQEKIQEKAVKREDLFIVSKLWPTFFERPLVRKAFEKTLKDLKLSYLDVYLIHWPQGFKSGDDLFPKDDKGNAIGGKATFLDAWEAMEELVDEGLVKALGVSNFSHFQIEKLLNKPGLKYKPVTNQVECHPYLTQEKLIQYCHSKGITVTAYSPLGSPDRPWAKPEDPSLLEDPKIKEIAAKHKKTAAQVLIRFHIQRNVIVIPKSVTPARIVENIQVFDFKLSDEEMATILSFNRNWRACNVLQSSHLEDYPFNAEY

[12] = target: Aldo-keto reductase family 1 member B1 (Homo sapiens, UniProt P15121); assay: Inhibition of N-terminal His-tagged human AKR1B1 expressed in Escherichia coli BL21 ([…] Plus) competent cells using D,L-glyceraldehyde as substrate in presence of NADPH by fluorescence method
[13] = target: T2, Aldo-keto reductase family 1 member C4; assay: Inhibition of N-terminal His-tagged human AKR1C4 expressed in Escherichia coli BL21 ([…] Plus) competent cells using 9,10 -Phenanthrenequinone as substrate in presence of NADPH by fluorescence method
[14] = target: T1, Aldo-keto reductase family 1 member C3; assay: Inhibition of N-terminal His-tagged human AKR1C3 expressed in Escherichia coli BL21 ([…] Plus) competent cells using 9,10 -Phenanthrenequinone as substrate in presence of NADPH by fluorescence method
[15] = target: T4, Aldo-keto reductase family 1 member C1; assay: Inhibition of N-terminal His-tagged human AKR1C1 expressed in Escherichia coli BL21 ([…] Plus) competent cells using 9,10 -Phenanthrenequinone as substrate in presence of NADPH by fluorescence method
[16] = target: T3, Aldo-keto reductase family 1 member C2; assay: Inhibition of N-terminal His-tagged human AKR1C2 expressed in Escherichia coli BL21 ([…] Plus) competent cells using 9,10 -Phenanthrenequinone as substrate in presence of NADPH by fluorescence method
[17] = target: T1, Aldo-keto reductase family 1 member C3; assay: Inhibition of N-terminal His-tagged human AKR1C3 expressed in Escherichia coli BL21([…] Plus) competent cells using 9,10-phenanthrenequinone as substrate in presence of NADPH
[18] = target: T3, Aldo-keto reductase family 1 member C2; assay: Inhibition of N-terminal His-tagged human AKR1C2 expressed in Escherichia coli BL21 ([…] Plus) competent cells using 9,10-phenanthrenequinone as substrate in presence of NADPH
[19] = target: T4, Aldo-keto reductase family 1 member C1; assay: Inhibition of N-terminal His-tagged human AKR1C1 expressed in Escherichia coli BL21 ([…] Plus) competent cells using 9,10-phenanthrenequinone as substrate in presence of NADPH
[20] = target: T3, Aldo-keto reductase family 1 member C2; assay: Inhibition of AKR1C2 (unknown origin) using 9,10-phenanthrenequinone as substrate
[21] = target: T4, Aldo-keto reductase family 1 member C1; assay: Inhibition of AKR1C1 (unknown origin) using 9,10-phenanthrenequinone as substrate

Structure (SMILES): CC(C)C(CO)Nc1nc(Nc2cccc(Cl)c2)c2ncn(C(C)C)c2n1 (stereo not given)
- IC50 [1]: 6.58 µM
- Ki [1]: 5.5 µM

Structure (SMILES): O=C(O)c1cccc(Nc2ccc([N+](=O)[O-])c3ccccc23)c1
- IC50 [2]: 30.6 µM
- IC50 [3]: 24.7 µM
- IC50 [4]: 0.086 µM
- IC50 [5]: 41.3 µM

Structure (SMILES): CCCCC/C=C/C/C=C/C/C=C/C/C=C/CCCC(=O)O
- IC50 [6]: 0.84 µM
- IC50 [7]: 0.69 µM

Structure (SMILES): Oc1ccc2c(O)ncc(-c3cc(F)c(F)c(F)c3)c2c1
- IC50 (Androgen receptor [8]): 80 µM
- IC50 (Androgen receptor [9]): 2.1 µM

Structure (SMILES): O=C(O)c1cccc(Nc2ccc([N+](=O)[O-])c3c([N+](=O)[O-])cccc23)c1
- IC50 [2]: 5.34 µM
- IC50 [3]: 15.6 µM
- IC50 [4]: 0.053 µM
- IC50 [5]: 15.4 µM

Structure (SMILES): CC(=O)c1ccc(Nc2cccc(C(=O)O)c2)c2ccccc12
- IC50 [2]: 17.7 µM
- IC50 [3]: 19.5 µM
- IC50 [4]: 0.082 µM
- IC50 [5]: 50 µM

Structure (SMILES): CCC(CO)Nc1nc(NCc2ccccc2)c2ncn(C(C)C)c2n1 (stereo not drawn) [(RS)-ROSCOVITINE]
- IC50 [1]: 2.15 µM
- Ki [1]: 1.4 µM

Structure (SMILES): COc1ccc2[nH]c(C(=O)N3CCC(CC(C)(C)O)CC3)cc2c1 [ASP-9521]
- IC50 (Androgen receptor [9]): 300 µM

Structure (SMILES): O=C(/C=C/c1ccc(O)c(O)c1)OCCc1ccccc1 [CAFFEIC ACID PHENETHYL ESTER]
- IC50 [10]: > 50 µM
- IC50 [11]: 0.39 µM
- IC50 [12]: 3.56 µM
- IC50 [13]: 8.25 µM
- IC50 [14]: 3.71 µM
- IC50 [15]: 29.2 µM
- IC50 [16]: 25.8 µM

Structure (SMILES): Cc1ccc(S(=O)(=O)NC(=O)NN2CC3CCCC3C2)cc1 (stereo not given) [GLICLAZIDE]
- IC50 [17]: 19.6 µM
- IC50 [18]: > 1000 µM
- IC50 [19]: > 300 µM

Structure (SMILES): CCC1=C(C)CN(C(=O)NCCc2ccc(S(=O)(=O)NC(=O)N[C@H]3CC[C@H](C)CC3)cc2)C1=O [GLIMEPIRIDE]
- IC50 [17]: 0.85 µM
- IC50 [18]: > 50 µM
- IC50 [19]: 6.86 µM

Structure (SMILES): COc1ccc2c(c1)c(CC(=O)O)c(C)n2C(=O)c1ccc(Cl)cc1 [INDOMETHACIN]
- IC50 [20]: 50 µM
- IC50 [21]: 96 µM

Structure (SMILES): CCCCC/C=C\C/C=C\CCCCCCCC(=O)O [LINOLEIC ACID]
- IC50 [6]: 0.69 µM
- IC50 [7]: 0.69 µM

Structure (SMILES): CCCCCCCCOC(=O)c1cc(O)c(O)c(O)c1 [OCTYL_GALLATE]
- IC50 [10]: > 100 µM
- IC50 [11]: > 100 µM
- IC50 [12]: > 100 µM
- IC50 [13]: 4.04 µM
- IC50 [14]: 2.56 µM
- IC50 [15]: 5.48 µM
- IC50 [16]: 9.28 µM
